Laboratory results as given in patent US20010018095A1, “Method of forming a membrant, especially a latex or polymer membrane, including multiple discrete layers” (priority 1987, published 2001).

Key:
[1] = candidate solvents for polyurethane and biocide; cited from earlier work
[2] = test system: latex-allergic or sensitive users; assay: Gentian violet admixed with liquid latex: allergic reactions in users; settings: gentian violet admixed with liquid latex prior to membrane formation; 1.5% by weight solution preferred
Text: According to one aspect of the invention, gentian violet is admixed with liquid latex prior to membrane formation by dipping or spraying techniques. A wide variety of different concentrations may be used, but a 1.5% by weight solution of gentian violet is preferred. […] Other proteing binding biocides may be employed in place of or in combination with gentian violet.

CCOCCO [Ethylene glycol monoethyl ether]
Hydrogen Bonding [1]: medium

C1CCOC1 [Tetrahydrofuran (THF), Tetrahydrofuran]
Hydrogen Bonding [1]: medium

Cc1cccc(O)c1 [m-Cresol]
Hydrogen Bonding [1]: strong

C[S+](C)[O-] [Dimethyl sulfoxide (DMS), Dimethyl sulfoxide]
Hydrogen Bonding [1]: medium

CN(C)c1ccc(C(=C2C=CC(=[N+](C)C)C=C2)c2ccc(N(C)C)cc2)cc1 [gentian violet]
allergic reactions in latex-allergic or sensitive users [2]: minimize allergic reactions

CC(=O)N(C)C [Dimethyl acetamide (DMF), Dimethyl acetamide]
Hydrogen Bonding [1]: medium

CCC(=O)CC [Diethyl ketone]
Hydrogen Bonding [1]: medium

CCC(C)=O [Methyl ethyl ketone]
Hydrogen Bonding [1]: medium
